{"source": "patent US4918193A", "about": "“Methods for preparing 3-[N-phenyl-acetylaminopiperidine]-2,6-dion” (priority 1989, dated 1990)", "key": {"[1]": {"assay": "Hydrolysis of the sodium salt upon standing", "assay_type": "physicochemical", "description": "Five thousand grams of 3-[N-phenylacetylaminopiperidine]-2,6-dion was pulverized in a grinder, then suspended in 44 liters of pyrogen-free water. Concentrated sodium hydroxide in pyrogen-free water was added stepwise and stirred until all the powder was dissolved. The pH of the mixture was 7.0. Activated charcoal (U.S.P.) was added and stirred for 45 minutes, and then filtered. The concentration of the filtrate was adjusted to 103 mg/ml with pyrogen free water. The filtrate was then processed according to standard U.S.P. procedure for large volume injections of single dose infusions."}, "[2]": {"test_system": "human neoplastic diseases", "assay": "Treatment of various human neoplastic diseases (general clinical statement)", "assay_type": "in vivo", "description": "Various human neoplastic diseases were treated with 3-[N-phenylacetylaminopiperidine]-2,6-dion or its degradation products."}, "[3]": {"test_system": "advanced neoplastic diseases", "assay": "Phase I clinical studies, 500 mg capsules (Example 1)", "assay_type": "in vivo, human", "details": "500 mg capsules daily", "description": "The phase I clinical studies with 3-[N-phenylacetylaminopiperidine]-2,6-dion 500 mg capsules involved 42 patients diagnosed with 49 types of advanced neoplastic diseases. The formulation was administered daily for from 6 to 314 days. The highest dosage taken was 288.4 mg/kg/24 hours. […] Positive clinical response was obtained in 75% of 49 treated cases."}, "[4]": {"assay": "Acute toxicity in mice, intraperitoneal injection"}, "[5]": {"test_system": "Rd/3 sarcoma", "details": "rats, Neish, Experientia, 27: 860 (1971), cited from earlier work"}}, "note": "“Also recorded” adds a separate entry of the source. Counter-ions that a name gives are not always drawn. Like-named read-outs stand apart in the source and are kept apart here.", "data": [{"smiles": "O=C1CCC(NC(=O)Cc2ccccc2)C(=O)N1", "note": "(stereo not shown) [3-[N-phenylacetylaminopiperidine]2,6-dion sodium salt]", "values": [{"measurement": "basic hydrolysis upon standing", "setting": "[1]", "result": "undergoes basic hydrolysis to form the sodium salts of phenylacetyl glutamine and phenylacetyl isoglutamine"}]}, {"smiles": "O=C1CCC(NC(=O)Cc2ccccc2)C(=O)N1", "note": "(stereo not shown) [3-[N-phenylacetylaminopiperidine]-2,6-dion]", "values": [{"measurement": "usefulness / effectiveness in the treatment of human cancers", "setting": "[2]; Applicant's clinical studies", "result": "effective to some extent in aiding the regression of tumors"}, {"measurement": "regression of tumors associated with named human cancers", "setting": "[2]; cancer of esophagus, breast, bladder, colon, lung, prostate, pancreas, uterine cervix, brain, bone and lung metastases, lymphatic lymphoma", "result": "with success in the regression of tumors"}, {"measurement": "best clinical effects observed in", "setting": "[3]", "result": "chronic myelocytic leukemia and chronic lymphocytic leukemia, adenocarcinoma of the prostate, carcinoma of the breast and glioma"}, {"measurement": "desirable side effects", "setting": "[3]", "result": "decrease of plasma levels of triglycerides and cholesterol; also recorded: increase of white blood cell count, red blood cell count and platelet count; also recorded: improvement of blood clotting"}, {"measurement": "adverse reactions", "setting": "[3]; highest dosage 288.4 mg/kg/24 hours", "result": "minimal adverse reactions, including excessive gas, gastrointestinal bleeding (most likely not related to 3-[N-phenylacetylaminopiperidine]-2,6-dion but to primary disease), moderately increased blood pressure, skin rash, vertigo, hypokalemia, hypoglycemia and mild myelosuppression"}, {"measurement": "Positive clinical response", "setting": "[3]; of 49 treated cases, 6 to 314 days", "result": 75, "unit": "%"}, {"measurement": "autopsy and microscopic findings in animals which died", "setting": "[4]; HA/ICR swiss mice, intraperitoneal", "result": "congestion of the liver and marked pulmonary edema"}, {"measurement": "acute toxicity, overall", "setting": "[4]; experimental animals", "result": "very low toxicity"}, {"measurement": "observation of surviving animals", "setting": "[4]; kept one week under close observation", "result": "normal activity"}, {"measurement": "autopsy and microscopic examination of tissues of surviving animals", "setting": "[4]; sacrificed after a week, versus control uninjected subjects", "result": "identical to those of control, uninjected subjects"}]}, {"smiles": "O=C(O)Cc1ccccc1", "note": "[sodium salt of phenylacetic acid]", "values": [{"measurement": "effect on tumor growth, Rd/3 sarcoma", "setting": "[5]", "result": "failed to inhibit tumor growth"}, {"measurement": "effect on tumor growth, Rd/3 sarcoma", "setting": "[5]; listed as phenylacetic acid", "result": "some enhancement of tumor growth"}]}]}
